{"source": "paper PMC8624133", "about": "“10th Trends in Medical Mycology Held on 8 to 11 October 2021, Aberdeen, Scotland, Organized by the European Confederation of Medical Mycology (ECMM)” (Journal of Fungi, 2021)", "key": {"A. fumigatus conidia": {"tested_on": "A. fumigatus conidia", "experiment": "Conidia killing by epithelial cells with sulfide donor", "assay_type": "cell-based, Aspergillus fumigatus", "source_text": "Materials & Methods: We deleted A. fumigatus genes to identify the enzymes primarily responsible for persulfidation as confirmed by fluorescence proteomic and microscopic analyses. We then used enzymatic assays, killing experiments and murine models to characterize the relevance of persulfidation for A. fumigatus virulence. We performed a genetic association study of the frequencies of a Single Nucleotide Polymorphism (SNP) in the human gene with the probability of suffering Invasive pulmonary aspergillosis (IPA) in hematopoietic stem cell transplant (HSCT) recipients. Next, we investigated the antifungal capacities of host cells using our engineered A549 cell line and alveolar macrophages and neutrophils derived from knock-out mice. Subsequenlty we investigated the interdependency of fungal and human persulfidation levels using Western-blot and fluorescence microscopy. Finally, we performed killing assays in the presence of a sulfide donor to potentiate host persulfidation."}, "[1]": {"tested_on": "Scedosporium and Lomentospora species", "experiment": "Antifungal susceptibility tests", "assay_type": "cell-based", "protocol": "(§1) Materials & Methods: Antifungal susceptibility tests and biofilm assay were performed to evaluate the activity of miltefosine against Scedosporium and Lomentospora species. Electron microscopy and fluorescent dyes, such as 2′,7′ –dichlorofluorescein diacetate and JC-1, were used to check the effects on cell integrity, oxidative stress and mitochondrial membrane potential, respectively. Miltefosine effects on fungal membrane were evaluated by fillipin staining, the susceptibility to membrane and cell wall stressors and the analysis of cell membrane permeability. Sinergystic assay was performed to check miltefosine interaction with current antifungal agents used in clinical settings."}, "[2]": {"tested_on": "Scedosporium and Lomentospora species", "experiment": "Biofilm assay", "assay_type": "cell-based", "protocol": "as §1"}, "[3]": {"tested_on": "drug transporters of M. circinelloides and R. microsporus", "experiment": "Rhodamine 6G efflux following glucose injection", "assay_type": "cell-based, Mucor circinelloides, Rhizopus microsporus", "protocol": "(§2) Methods: The inhibitory effect of PaβN on transporters activity was assessed by measuring the efflux of their fluorescent substrate rhodamine 6G following glucose injection. The interaction of PaβN and posaconazole was assessed by the chequerboard dilution method in order to determine the fractional inhibitory concentration index (FICI)."}, "[4]": {"tested_on": "M. circinelloides and R. microsporus", "experiment": "Chequerboard dilution with posaconazole", "assay_type": "cell-based, Mucor circinelloides, Rhizopus microsporus", "conditions": "PaβN + posaconazole; five ATCC or clinical isolates", "protocol": "as §2"}, "[5]": {"tested_on": "dermatophyte standard strains and clinical isolates", "experiment": "Broth microdilution MIC", "assay_type": "cell-based, Trichophyton and Microsporum spp.", "conditions": "all tested strains", "protocol": "(§3) Materials & Methods: The minimum inhibitory concentration (MIC) of honokiol was assessed by broth microdilution method against standard strains (Trichophyton rubrum ATCC 28188, Trichophyton mentagrophytes ATCC 9533), and clinical isolates (T. rubrum, T. ajelloi, Microsporum canis and M. gypseum). Evaluation of honokiol effect on ergosterol biosynthesis was assessed by high performance liquid chromatography. Checkerboard microtiter method was used to identify synergistic combinations of honokiol with terbinafine against Trichophyton rubrum ATCC 28188. The combinatorial effect was evaluated by calculating the fractional inhibitory concentration index (FICI)."}, "T. rubrum": {"tested_on": "T. rubrum", "experiment": "Ergosterol content by HPLC", "assay_type": "cell-based, Trichophyton rubrum", "conditions": "control 13.56 ± 0.35 mg%", "protocol": "as §3"}, "[6]": {"tested_on": "Trichophyton rubrum ATCC 28188", "experiment": "Checkerboard microtiter method with terbinafine", "assay_type": "cell-based", "conditions": "honokiol + terbinafine, additive interactions", "protocol": "as §3"}, "McLDM-F5-CPR": {"tested_on": "McLDM-F5-CPR", "experiment": "microbe, parasite or virus in culture", "assay_type": "cell-based, Saccharomyces cerevisiae AD2Δgal", "conditions": "Saccharomyces cerevisiae, read-out: mean MIC"}, "[7]": {"experiment": "Triazole drug levels in ABPA patients with asthma", "assay_type": "in vivo, human", "conditions": "452 patients, Oct 2009 to March 2021", "source_text": "Materials & Methods: This was a retrospective single-centre cohort study evaluating longitudinal outcomes in non-cystic fibrosis (CF) ABPA patients with underlying chronic lung disease (asthma), and description of treatment approaches. Statistical Analysis System (SAS) programming was used for data integration from multiple hospital electronic systems, for patient identification and data analysis. Criteria for inclusion were patients with a background of asthma, serum Total IgE >1000 IU/mL and a positive Aspergillus IgE, with or without a positive culture for A. fumigatus from a respiratory sample. Data collected included demographics, lung function severity, disease activity serological markers (Aspergillus IgE, Aspergillus IgG, Total IgE) and triazole levels. In this study the impact of fungal therapy on disease outcomes was assessed."}, "[8]": {"tested_on": "C. auris Isolate B and Isolate C", "experiment": "microbe, parasite or virus in culture", "assay_type": "cell-based, Candida auris"}, "[9]": {"tested_on": "azole-resistant A. fumigatus SS clinical strains", "experiment": "EUCAST E.DEF 9.3.2", "assay_type": "cell-based", "conditions": "Aspergillus fumigatus"}, "[10]": {"tested_on": "A. fumigatus veterinary isolates", "experiment": "EUCAST microdilution of veterinary isolates", "assay_type": "cell-based, Aspergillus fumigatus", "protocol": "All have been confirmed as A. fumigatus by MALDI-TOF MS using the BCCM/IHEM database. The antifungal susceptibility was evaluated using the microdilution EUCAST method. Cyp51A gene sequencing has been performed on all resistant isolates."}, "ISV blood levels, HPLC": {"experiment": "ISV blood levels, HPLC", "assay_type": "in vivo, human", "conditions": "for samples with level <1 mg/L: ICU", "protocol": "Materials & Methods: ISV levels are routinely tested in our centre HPLC method. The lowest limit of quantification was set at 0.15 mg/L. ISV blood levels obtained between January 2017 and May 2021 were analysed and compared between those obtained from patients in ICU vs. others. Chi-square/Fisher’s exact test and Mann-Whitney test were used for categorical and continuous variables, respectively. Levels of ISV <1 mg/L were defined as low."}, "A. fumigatus complex": {"tested_on": "A. fumigatus complex", "conditions": "share of isolates, n = 59, EUCAST clinical breakpoints"}, "A. flavus complex": {"tested_on": "A. flavus complex", "conditions": "n = 6, EUCAST clinical breakpoints"}, "A. nidulans complex": {"tested_on": "A. nidulans complex", "conditions": "all isolates, n = 2"}, "Candida albicans": {"tested_on": "Candida albicans", "experiment": "CLSI M27-A3/M27-S4 MIC and MFC", "assay_type": "cell-based", "protocol": "(§4) Methods & Materials: To evaluate the antifungal effect of each combination of nystatin and morencidine-like peptide, the protocol presented in CLSI M27-A3 and CLSI M27-S4 was used and the minimum inhibitory concentration was determined."}, "Candida glabrata": {"tested_on": "Candida glabrata", "experiment": "CLSI M27-A3/M27-S4 MIC and MFC", "assay_type": "cell-based", "protocol": "as §4"}, "Candida tropicalis": {"tested_on": "Candida tropicalis", "experiment": "CLSI M27-A3/M27-S4 MIC and MFC", "assay_type": "cell-based", "protocol": "as §4"}, "C. albicans": {"tested_on": "C. albicans", "experiment": "Neutrophil control of hyphal growth (swarming)", "assay_type": "cell-based, Candida albicans", "conditions": "neutrophils of SOT and SCT recipients, ex vivo", "protocol": "Methods and Materials: Twenty-one SOT, 19 SCT and 23 healthy control patients (HC) were identified and consented at primary care/outpatient transplant clinics. Transplant recipients were enrolled at a time period two to four months post-transplant. Following consent and peripheral blood collection, neutrophils were freshly isolated and co-incubated with C. albicans and the percent remaining live yeast was measured using a viability dye compared to a standard control to determine fungal elimination by neutrophils. Growth inhibition of C. albicans was also quantified by neutrophil swarming to yeast spotted onto glass slides, assessed by live cell imaging with or without G-CSF. Effect of soluble factors on neutrophils function was determined by incubation of healthy neutrophils with SOT and SCT serum and measuring ability to control C. albicans."}, "[11]": {"tested_on": "invasive fungal diseases (IFDs)", "conditions": "41 patients; ref published case reports, PubMed and Embase, 1990–2020; cited from earlier work", "source_text": "Among the 41 patients with IFDs, were those with invasive candidiasis and invasive mould diseases, including those caused by Aspergillus spp., Mucorales, and Fusarium spp. Sixteen (39%) had baseline neutropenia and 27 (66%) were considered to be refractory to standard therapy prior to GM-CSF administration. Among the 41 patients with IFDs, complete responses were reported in 35 (85%) patients and partial response in 1 patient, with 5 patients having no or unclear response. || Previously published case reports on the use of GM-CSF for adjunctive treatment of IFDs are summarized in Table 2. […]"}}, "note": "“And” between values parts separate entries of the source, which are not always exact repeats. Identical values can stand only once. Residues, ends and D or L forms follow the SMILES beside them. *: point of attachment. βNA = c1ccc2cc(N*)ccc2c1", "data": [{"molecule": "C1COCCN1.COc1ccc(P(=S)(S)N2CCOCC2)cc1", "note": "(centres unmarked) [GY4137]", "values": [{"measurement": "conidia killing capacity of epithelial cells", "setting": "A. fumigatus conidia", "value": "enhanced"}]}, {"molecule": "CCCCCCCCCCCCCCCCOP(=O)([O-])OCC[N+](C)(C)C", "note": "[Miltefosine, miltefosine]", "values": [{"measurement": "inhibitory concentration", "setting": "[1]", "value": "2 to 4", "unit": "µg/mL"}, {"measurement": "biofilm formation", "setting": "[2]", "value": "reduced biofilm formation"}]}, {"molecule": "NC(N)=NCCC[C@H](NC(=O)[C@@H](N)Cc1ccccc1)C(=O)Nc1ccc2ccccc2c1", "note": "[PaβN, Phenylalanine-Arginine Beta-Naphthylamide] (H-Phe-Arg-βNA)", "values": [{"measurement": "efflux of rhodamine 6G", "setting": "[3]", "value": "decrease the efflux of rhodamine 6G"}, {"measurement": "FICI", "setting": "[4]", "value": "0.5 and 0.5 to 0.6"}]}, {"molecule": "C=CCc1ccc(O)c(-c2ccc(O)c(CC=C)c2)c1", "note": "[honokiol, Honokiol]", "values": [{"measurement": "MIC", "setting": "[5]", "value": "8 to 16", "unit": "µg/mL"}, {"measurement": "ergosterol content", "setting": "T. rubrum", "value": "9.52 ± 0.43", "unit": "mg%"}, {"measurement": "FICI", "setting": "[6]", "value": "0.53–0.75"}]}, {"molecule": "C[C@@H](c1nc(-c2ccc(C#N)cc2)cs1)[C@](O)(Cn1cncn1)c1cc(F)ccc1F", "note": "[isavuconazole]", "values": [{"measurement": "MIC", "setting": "McLDM-F5-CPR", "value": 4, "unit": "µg/mL"}, {"measurement": "median trough drug level", "setting": "[7]", "value": 3.29, "unit": "mg/L"}, {"measurement": "change of MIC", "setting": "[8]", "value": "largely unchanged"}, {"measurement": "reduction in MIC", "setting": "[8]; Isolate C with ERG11 WT in place of K143R", "value": 2, "unit": "fold"}, {"measurement": "MIC", "setting": "[9]; strain from pleural fluid of an ICU patient, no mutations in cyp51A", "value": 1, "unit": "µg/mL"}, {"measurement": "MIC", "setting": "[9]; two strains from a cystic fibrosis patient, TR34/L98H", "value": 8, "unit": "µg/mL"}, {"measurement": "isolates in the area of technical uncertainty (ATU)", "setting": "[10]", "value": 27, "unit": "%"}, {"measurement": "resistance of isolates", "setting": "[10]", "value": "No resistance"}, {"measurement": "median blood level", "setting": "ISV blood levels, HPLC; 265 samples, 63 patients, first two months", "value": 3.3, "unit": "mg/L"}, {"measurement": "blood level range", "setting": "ISV blood levels, HPLC; ICU patients", "value": "0 to 8480", "unit": "ng/mL"}, {"measurement": "median blood level", "setting": "ISV blood levels, HPLC; ICU patients", "value": 1.95, "unit": "mg/L"}, {"measurement": "samples with level <1 mg/L", "setting": "ISV blood levels, HPLC; during renal replacement therapy, 7/24", "value": 29.2, "unit": "%"}, {"measurement": "samples with level <1 mg/L", "setting": "ISV blood levels, HPLC; not receiving RRT, 7/46", "value": 15.2, "unit": "%"}, {"measurement": "blood level range", "setting": "ISV blood levels, HPLC; all samples", "value": "0 to 14520", "unit": "ng/mL"}, {"measurement": "blood level range", "setting": "ISV blood levels, HPLC; non-ICU patients", "value": "0 to 14520", "unit": "ng/mL"}, {"measurement": "median blood level", "setting": "ISV blood levels, HPLC; non-ICU patients", "value": 4.1, "unit": "mg/L"}, {"measurement": "Resistance", "setting": "A. fumigatus complex", "value": 5, "unit": "%"}, {"measurement": "isolates resistant", "setting": "A. flavus complex", "value": 17, "unit": "%"}, {"measurement": "resistance of isolates", "setting": "A. nidulans complex", "value": "resistant"}]}, {"molecule": "C[C@@H]1[C@H](O)[C@@H](C)/C=C/C=C/CC/C=C/C=C/C=C/C=C/C(O[C@H]2O[C@H](C)[C@@H](O)[C@H](N)[C@@H]2O)CC2O[C@](O)(CC(O)C(O)CCC(O)CC(O)CC(O)CC(=O)O[C@H]1C)CC(O)C2C(=O)O", "note": "(some centres unmarked) [nystatin]", "values": [{"measurement": "MIC (maximum inhibitory effect)", "setting": "Candida albicans", "value": 1.25, "unit": "µg/mL"}, {"measurement": "MIC (maximum inhibitory effect)", "setting": "Candida glabrata", "value": 1.25, "unit": "µg/mL"}, {"measurement": "MIC (maximum inhibitory effect)", "setting": "Candida tropicalis", "value": 0.625, "unit": "µg/mL"}]}, {"molecule": "Granulocyte-macrophage colony stimulating factor [GM-CSF]", "values": [{"measurement": "neutrophil ability to control hyphal growth", "setting": "C. albicans", "value": "partially restored"}, {"measurement": "complete responses, n (%)", "setting": "[11]", "value": "35 (85%)"}]}]}
